The values below come from US20250129103A1, “METHODS FOR TREATMENT OF CANCER” (Frontier Medicines Corporation, priority 2022, published 2025).

Each structure is given as a SMILES string.

KRAS G12C (GMPPNP-loaded) and cRAF (Ras-binding domain) interaction, sequence (P01116 other isoform, or with tags, fused parts or gaps G12C/C51S/C80L/C118S): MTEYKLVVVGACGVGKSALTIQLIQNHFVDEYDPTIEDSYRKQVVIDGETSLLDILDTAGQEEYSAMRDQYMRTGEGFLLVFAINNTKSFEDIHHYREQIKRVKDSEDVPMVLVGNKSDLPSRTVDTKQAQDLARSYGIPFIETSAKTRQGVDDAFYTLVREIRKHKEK

In the assay the target is KRAS G12C (GMPPNP-loaded) and cRAF (Ras-binding domain) interaction (Homo sapiens (Human), UniProt P01116, C118S/C51S/C80L/G12C). Put plainly: Inhibition of KRAS G12C and cRAF binding (AlphaScreen). The settings on record: KRAS G12C loaded with GMPPNP, cRaf RBD, 2 hours preincubation; read-out: Raf-1 RBD K-Ras IC50. On the procedure:
Compounds were diluted in 100% DMSO and each compound concentration was spotted at 200 nl/well onto low volume, white 384 well plates. […] KRAS G12C was preloaded with the GTP analogue Guanosine 5′-[β,γ-imido]triphosphate (GMPPNP). The KRAS G12C was diluted in 25 mM Hepes, pH 7.4, 150 mM NaCl, 5 mM MgCl2, 0.01% TritonX-100 and 10 μM GMPPNP and added at 10 ul/well to compound-spotted plates resulting in a DMSO concentration of 2%. Plates were incubated for 2 hours. A mixture of RBD and the AlphaScreen streptavidin donor and glutathione acceptor beads diluted in 25 mM Hepes, pH 7.4, 150 mM NaCl, 5 mM MgCl2, 0.01% TritonX-100 and 2% DMSO was then added at 10 ul/well and incubated for 60-90 minutes before the samples were read for emission at 570 nm after excitation of the donor beads at 680 nm. All incubations were performed at room temperature. The final top compound concentration was 50 μM with 1:3 titrations for 10-point dose response curves. […] IC50S were determined using nonlinear regression fit of [inhibitor] vs. response (4 parameters). […]
(In general: Alpha assays give light when donor and acceptor beads are brought close together.)
Broadly, the IC50 is the concentration that inhibits the measured activity by half. Consider `CO[C@H]1CCN(C/C=C/C(=O)N2CCN(c3nc(OCC45CCCN4CCC5)nc4c3CCN(c3cccc5cccc(Cl)c35)C4)C[C@@H]2CC#N)C1` [Compound 200], for which the half-inhibitory concentration (IC50) was under 10 nM. For the compound `N#CC[C@H]1CN(c2nc(OCC34CCCN3CCC4)nc3c2CCN(c2cccc4cccc(Cl)c24)C3)CCN1C(=O)/C=C/CN1CC2CC2C1` (stereo partly drawn) [Compound 204], the IC50 was under 10 nM. In the case of `COC1CN(C/C=C/C(=O)N2CCN(c3nc(OCC45CCCN4CCC5)nc4c3CCN(c3cccc5cccc(Cl)c35)C4)C[C@@H]2CC#N)C1` [Compound 205] it was under 10 nM; in that of `Cc1nccc(/C=C/C(=O)N2CCN(c3nc(OCC45CCCN4CCC5)nc4c3CCN(c3cccc5ccc(F)c(Cl)c35)C4)C[C@@H]2CC#N)n1` [Compound 206], 100 to 500 nM.

Consider `Cc1cc(/C=C/C(=O)N2CCN(c3nc(OC[C@@]45CCCN4C[C@H](F)C5)nc4c(F)c(-c5cccc6ccccc56)ncc34)C[C@@H]2CC#N)nc(C)n1` [Compound 209], for which the IC50 lay within 100 to 500 nM.

On to `Cc1nccc(/C=C/C(=O)N2CCN(c3nc(OC[C@@]45CCCN4C[C@H](F)C5)nc4c(F)c(-c5cccc6ccccc56)ncc34)C[C@@H]2CC#N)n1` [Compound 210], for which the IC50 lay within 100 to 500 nM. Regarding `Cc1nccc(/C=C/C(=O)N2CCN(c3nc(OC[C@@]45CCCN4C[C@H](F)C5)nc4c(F)c(-c5c(C)cc(F)c6[nH]ncc56)ncc34)C[C@@H]2CC#N)n1` [Compound 212], the IC50 was in the range of 100 to 500 nM. As to `N#CC[C@H]1CN(c2nc(OC[C@@]34CCCN3C[C@H](F)C4)nc3c(F)c(-c4cccc5ccc(F)c(Cl)c45)ncc23)CCN1C(=O)/C=C/CN1CCS(=O)(=O)CC1` [Compound 213], the IC50 lay in the range of 100 to 500 nM. As for `CO[C@@H]1CCN(C/C=C/C(=O)N2CCN(c3nc(OC[C@@]45CCCN4C[C@H](F)C5)nc4c(F)c(-c5cccc6cccc(F)c56)ncc34)C[C@@H]2CC#N)C1` [Compound 221], the IC50 is under 10 nM. `Cc1nccc(/C=C/C(=O)N2CCN(c3nc(OC[C@@]45CCCN4C[C@H](F)C5)nc4c(F)c(-c5n[nH]c6cccc(Cl)c56)ncc34)C[C@@H]2CC#N)n1` [Compound 230]: the IC50 was over 500 nM. With `N#CC[C@H]1CN(c2nc(OC[C@@]34CCCN3C[C@H](F)C4)nc3c(F)c(-c4cccc5ccc(F)c(Cl)c45)ncc23)CCN1C(=O)/C=C/CN1CCSCC1` [Compound 231], the IC50 was under 10 nM. For `C[C@@H]1CN(C/C=C/C(=O)N2CCN(c3nc(OC[C@@]45CCCN4C[C@H](F)C5)nc4c(F)c(-c5cccc6cccc(F)c56)ncc34)C[C@@H]2CC#N)C[C@H](C)O1` [Compound 234], the IC50 is 10 to 100 nM. For the compound `N#CC[C@H]1CN(c2nc(OC[C@@]34CCCN3C[C@H](F)C4)nc3c(F)c(-c4cccc5cccc(F)c45)ncc23)CCN1C(=O)/C=C/CN1C2COCC1C2` [Compound 248], the half-inhibitory concentration (IC50) lay within 10 to 100 nM. Consider `Cc1cc(/C=C/C(=O)N2CCN(c3nc(OC[C@@]45CCCN4C[C@H](F)C5)nc4c(F)c(-c5cccc6c(C)c(F)ccc56)ncc34)C[C@@H]2CC#N)nc(C)n1` [Compound 250], for which the IC50 was in the range of 100 to 500 nM.

In the case of `Cc1c(F)ccc2c(-c3ncc4c(N5CCN(C(=O)/C=C/CN6[C@@H]7CC[C@H]6COC7)[C@@H](CC#N)C5)nc(OC[C@@]56CCCN5C[C@H](F)C6)nc4c3F)cccc12` [Compound 251], the half-maximal inhibitory concentration (IC50) lay within 100 to 500 nM. Turning to `Cc1c(F)ccc2c(-c3ncc4c(N5CCN(C(=O)/C=C/CN6CCOCC6)[C@@H](CC#N)C5)nc(OC[C@@]56CCCN5C[C@H](F)C6)nc4c3F)cccc12` [Compound 252], the IC50 lay within 100 to 500 nM. Turning to `Cc1c(F)ccc2c(-c3ncc4c(N5CCN(C(=O)/C=C/CN6CC7CC(C6)O7)[C@@H](CC#N)C5)nc(OC[C@@]56CCCN5C[C@H](F)C6)nc4c3F)cccc12` [Compound 253], the IC50 was over 500 nM. As to `Cc1nccc(/C=C/C(=O)N2CCN(c3nc(OC[C@@]45CCCN4C[C@H](F)C5)nc4c(F)c(-c5cccc6c(C)c(F)ccc56)ncc34)C[C@@H]2CC#N)n1` [Compound 260], the IC50 is over 500 nM. Take `N#CC[C@H]1CN(c2nc(OC[C@@]34CCCN3C[C@H](F)C4)nc3c(F)c(-c4cccc5cccc(Cl)c45)ncc23)CCN1C(=O)/C=C/CN1CCn2ccnc2C1` [Compound 262]: the IC50 was in the range of 10 to 100 nM. On to `N#CC[C@H]1CN(c2nc(OC[C@@]34CCCN3C[C@H](F)C4)nc3c(F)c(-c4cccc5ccc(F)c(F)c45)ncc23)CCN1C(=O)/C=C/CN1CCn2ccnc2C1` [Compound 263], for which the IC50 lay within 10 to 100 nM. In the case of `N#CC[C@H]1CN(c2nc(OC[C@@]34CCCN3C[C@H](F)C4)nc3c(F)c(-c4cccc5ccc(F)c(F)c45)ncc23)CCN1C(=O)/C=C/CN1CCn2ccnc2C1` [Compound 264], the IC50 lay within 100 to 500 nM. Take `N#CC[C@H]1CN(c2nc(OC[C@@]34CCCN3C[C@H](F)C4)nc3c(F)c(-c4cccc5cccc(Cl)c45)ncc23)CCN1C(=O)/C=C/CN1CCn2ncnc2C1` [Compound 265]: the IC50 is 100 to 500 nM.

Regarding `N#CC[C@H]1CN(c2nc(OC[C@@]34CCCN3C[C@H](F)C4)nc3c(F)c(-c4cccc5ccc(F)c(F)c45)ncc23)CCN1C(=O)/C=C/CN1CCn2ncnc2C1` [Compound 266], the half-inhibitory concentration (IC50) lay within 100 to 500 nM.

As for `N#CC[C@H]1CN(c2nc(OC[C@@]34CCCN3C[C@H](F)C4)nc3c(F)c(-c4cccc5cccc(Cl)c45)ncc23)CCN1C(=O)/C=C/CN1CCn2ncnc2C1` [Compound 267], the IC50 was in the range of 10 to 100 nM.

For `N#CC[C@H]1CN(c2nc(OC[C@@]34CCCN3C[C@H](F)C4)nc3c(F)c(-c4cccc5ccc(F)c(F)c45)ncc23)CCN1C(=O)/C=C/CN1CCn2nccc2C1` [Compound 268], the IC50 was 10 to 100 nM. In the case of `N#CC[C@H]1CN(c2nc(OC[C@@]34CCCN3C[C@H](F)C4)nc3c(F)c(-c4cccc(F)c4C4CC4)ncc23)CCN1C(=O)/C=C/CN1C2CCC1COC2` [Compound 269] it was under 10 nM. As for `N#CC[C@H]1CN(c2nc(OC[C@@]34CCCN3C[C@H](F)C4)nc3c(F)c(-c4cccc5cccc(Cl)c45)ncc23)CCN1C(=O)/C=C/CN1CCn2cnnc2C1` [Compound 270], the 50% inhibitory concentration (IC50) lay within 100 to 500 nM. Consider `N#CC[C@H]1CN(c2nc(OC[C@@]34CCCN3C[C@H](F)C4)nc3c(F)c(-c4ccccc4C4CC4)ncc23)CCN1C(=O)/C=C/CN1[C@@H]2CC[C@H]1COC2` [Compound 271], for which the IC50 lay within 10 to 100 nM.

For `N#CC[C@H]1CN(c2nc(OC[C@@]34CCCN3C[C@H](F)C4)nc3c(F)c(-c4ccc(F)c(F)c4C4CC4)ncc23)CCN1C(=O)/C=C/CN1[C@@H]2CC[C@H]1COC2` [Compound 272], the half-maximal inhibitory concentration (IC50) is 10 to 100 nM. On to `N#CC[C@H]1CN(c2nc(OC[C@@]34CCCN3C[C@H](F)C4)nc3c(F)c(-c4cccc(Cl)c4C4CC4)ncc23)CCN1C(=O)/C=C/CN1CC2CCC1CO2` (stereo partly drawn) [Compound 279], for which the IC50 is under 10 nM.

Turning to `CN1CCN(C/C=C/C(=O)N2CCN(c3nc(OC[C@@]45CCCN4C[C@H](F)C5)nc4c(F)c(-c5cccc6cccc(Cl)c56)ncc34)C[C@@H]2CC#N)CC1` [Compound 280], the IC50 fell in the range of 10 to 100 nM. Take `CCc1c(Cl)cccc1-c1ncc2c(N3CCN(C(=O)/C=C/CN4[C@@H]5CC[C@H]4COC5)[C@@H](CC#N)C3)nc(OC[C@@]34CCCN3C[C@H](F)C4)nc2c1F` [Compound 281]: the IC50 lay in the range of 10 to 100 nM. For `N#CC[C@H]1CN(c2nc(OC[C@@]34CCCN3C[C@H](F)C4)nc3c(F)c(-c4cccc(Cl)c4C4CCC4)ncc23)CCN1C(=O)/C=C/CN1[C@@H]2CC[C@H]1COC2` [Compound 282], the concentration for half-maximal inhibition (IC50) fell in the range of 10 to 100 nM.

Turning to `N#CC[C@H]1CN(c2nc(OC[C@@]34CCCN3C[C@H](F)C4)nc3c(F)c(-c4cccc(Cl)c4C4CC4)ncc23)CCN1C(=O)/C=C/CN1CC[C@@H](F)C1` [Compound 284], the IC50 was under 10 nM. Regarding `CN1CCN(C/C=C/C(=O)N2CCN(c3nc(OC[C@@]45CCCN4C[C@H](F)C5)nc4c(F)c(-c5cccc(Cl)c5C5CC5)ncc34)C[C@@H]2CC#N)CC1` [Compound 286], the concentration for half-maximal inhibition (IC50) was in the range of 10 to 100 nM.

Consider `CO[C@@H]1CCN(C/C=C/C(=O)N2CCN(c3nc(OC[C@@]45CCCN4C[C@H](F)C5)nc4c(F)c(-c5cccc(Cl)c5C5CC5)ncc34)C[C@@H]2CC#N)C1` [Compound 288], for which the concentration for half-maximal inhibition (IC50) is under 10 nM. For the compound `Cc1nccc(/C=C/C(=O)N2CCN(c3nc(OC[C@@]45CCCN4C[C@H](F)C5)nc4c(F)c(-c5ccccc5C(F)F)ncc34)C[C@@H]2CC#N)n1` [Compound 290], the IC50 was over 500 nM. For the compound `N#CC[C@H]1CN(c2nc(OC[C@@]34CCCN3C[C@H](F)C4)nc3c(F)c(-c4cccc5cccc(Cl)c45)ncc23)CCN1C(=O)/C=C/CN1C[C@H]2COC[C@H]21` [Compound 291], the IC50 was 10 to 100 nM. As to `N#CC[C@H]1CN(c2nc(OC[C@@]34CCCN3C[C@H](F)C4)nc3c(F)c(-c4cccc(Cl)c4C(F)(F)F)ncc23)CCN1C(=O)/C=C/CN1CCOCC1` [Compound 296], the concentration for half-maximal inhibition (IC50) is under 10 nM.

In the case of `C[C@@H]1CN(C/C=C/C(=O)N2CCN(c3nc(OC[C@@]45CCCN4C[C@H](F)C5)nc4c(F)c(-c5cccc(Cl)c5C5CC5)ncc34)C[C@@H]2CC#N)C[C@@H](C)O1` [Compound 301], the IC50 is 10 to 100 nM. In the case of `N#CC[C@H]1CN(c2nc(OC[C@@]34CCCN3C[C@H](F)C4)nc3c(F)c(-c4cccc5cccc(Cl)c45)ncc23)CCN1C(=O)/C=C/CN1CC[C@H](OC(F)F)C1` [Compound 303], the IC50 is under 10 nM.

For the compound `N#CC[C@H]1CN(c2nc(OC[C@@]34CCCN3C[C@H](F)C4)nc3c(F)c(-c4cccc5cccc(Cl)c45)ncc23)CCN1C(=O)/C=C/CN1CC[C@@H](OC(F)F)C1` [Compound 304], the IC50 was under 10 nM.
